# Source: article PMC10012260 (ACS Infectious Diseases, 2023)
# “And” between values parts separate entries of the source, which are not always exact repeats. Identical values can stand only once. Like-named read-outs stand apart in the source and are kept apart here.
# How the values were obtained:
# NDV La Sota [1] = assay: microbe, parasite or virus in culture; format: cell-based, Newcastle disease virus; conditions: avian paramyxovirus 1, Vero, read-out: Inhibition of viral binding (IC50, μM)
# in vitro = conditions: African green monkey
# [2] = target: NDV-HN of three NDV strains (two NDV La Sota and the velogenic strain APMV-1/chicken/Egypt/13VIR-5009-2/2013) (Newcastle disease virus, UniProt P35743); assay: biochemical
# NDV La Sota [3] = assay: microbe, parasite or virus in culture; format: cell-based, Newcastle disease virus; conditions: avian paramyxovirus 1, Vero, 48 h, read-out: Inhibition of viral release (IC50, μM)
# NDV La Sota [4] = assay: microbe, parasite or virus in culture; format: cell-based, Newcastle disease virus; conditions: for IC50: avian paramyxovirus 1, Vero, 48 h, read-out: plaque reduction assay (IC50, μM)
# NDV La Sota [5] = assay: microbe, parasite or virus in culture; format: cell-based, Newcastle disease virus; conditions: avian paramyxovirus 1, Vero, 24 h, read-out: viral yield reduction assay 24 h (IC50, μM)
# La Sota Clone 30 NDV-HN = La Sota Clone 30 NDV-HN (Newcastle disease virus, UniProt P35743); format: biochemical
# hPIV3-HN = conditions: read-out: IC50 hPIV3-HN; cited from earlier work
# Sequence of La Sota Clone 30 NDV-HN (P35743 whole entry, looked up): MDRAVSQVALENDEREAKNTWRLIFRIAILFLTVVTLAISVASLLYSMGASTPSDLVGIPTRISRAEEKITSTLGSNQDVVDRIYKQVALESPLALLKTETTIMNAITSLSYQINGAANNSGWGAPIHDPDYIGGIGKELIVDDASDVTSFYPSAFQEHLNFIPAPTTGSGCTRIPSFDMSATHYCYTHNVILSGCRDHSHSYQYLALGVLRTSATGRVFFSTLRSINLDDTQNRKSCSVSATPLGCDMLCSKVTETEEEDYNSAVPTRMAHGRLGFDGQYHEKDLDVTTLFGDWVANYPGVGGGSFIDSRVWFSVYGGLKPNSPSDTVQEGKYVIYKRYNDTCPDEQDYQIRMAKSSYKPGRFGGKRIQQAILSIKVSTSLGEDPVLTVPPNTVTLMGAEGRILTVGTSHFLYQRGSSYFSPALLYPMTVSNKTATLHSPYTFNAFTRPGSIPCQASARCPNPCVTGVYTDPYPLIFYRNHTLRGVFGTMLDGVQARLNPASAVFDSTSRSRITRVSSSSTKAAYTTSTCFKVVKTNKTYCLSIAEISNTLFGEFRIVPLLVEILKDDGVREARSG
# Sequence of NDV-HN of three NDV strains (two NDV La Sota and the velogenic strain APMV-1/chicken/Egypt/13VIR-5009-2/2013) (P35743 whole entry, looked up): as above
Structure (SMILES),IC50 (NDV La Sota [1]) [µM],CC50 (in vitro) [µM],IC50 [2] [µM],IC50 (NDV La Sota [3]) [µM],selectivity index (CC50/IC50) (NDV La Sota [4]),IC50 (NDV La Sota [4]) [µM],IC50 (NDV La Sota [5]) [µM],increase in inhibitory activity versus p-toluenesulfonamido 12 (La Sota Clone 30 NDV-HN) [fold],times more active than FANA 5 (La Sota Clone 30 NDV-HN) [times],IC50 (hPIV3-HN),increase in potency versus methylsulfonamido derivative 14 (La Sota Clone 30 NDV-HN) [fold]
"CC(=O)N[C@H]1[C@H]([C@H](O)[C@H](O)CO)OC(C(=O)O)=C[C@@H]1N=C(N)N [Compound 2, Zanamivir, reference compound]",> 100,> 2500,23 to 70,29 ± 10,>83,30 ± 7,,,,,
"CC(=O)N[C@H]1[C@H]([C@H](O)[C@H](O)CO)OC(C(=O)O)=C[C@@H]1O [Compound 1, N-acetyl-2,3-dehydro-2-deoxyneuraminic acid, reference compound]",> 100,> 2500,6.2 to 14,15 ± 8,>96,26 ± 13,1.6 ± 0.6,,,,
"O=C(O)C1=C[C@H](O)[C@@H](NC(=O)C(F)(F)F)[C@H]([C@H](O)[C@H](O)CO)O1 [Compound 5, N-trifluoroacetyl-2,3-dehydro-2-deoxyneuraminic acid, reference compound]",> 100,> 2500,6.2 to 14,7.7 ± 2.9,>714,3.5 ± 0.9,0.37 ± 0.08,,,,
"Cc1ccc(C(=O)N[C@H]2C=C(C(=O)O)O[C@@H]([C@H](O)[C@H](O)CO)[C@@H]2NC(=O)C(F)(F)F)cc1 [Compound 23, 2,6-Anhydro-4-(4-methylbenzamido)-3,4,5-trideoxy-5-(2,2,2-trifluoroacetamido)-D-glycero-D-galacto-non-2-enoic Acid]",24,> 2500,≤ 0.2,0.13,,0.79 ± 0.57,0.05 ± 0.02,3,40,,
"O=C(O)C1=C[C@H](NC(=O)C(F)(F)F)[C@@H](NC(=O)C(F)(F)F)[C@H]([C@H](O)[C@H](O)CO)O1 [Compound 24, 2,6-Anhydro-3,4,5-trideoxy-4,5-di-(2,2,2-trifluoroacetamido)-D-glycero-D-galacto-non-2-enoic Acid]",15,> 2500,≤ 0.2,0.17,,0.08 ± 0.01,0.03 ± 0.01,,,,
[N-]=[N+]=N[C@H]1C=C(C(=O)O)O[C@@H]([C@H](O)[C@H](O)CO)[C@@H]1NC(=O)C(F)(F)F [Compound 9],23,> 2500,~0.03,0.47,,0.17 ± 0.06,0.04 ± 0.01,,,,
[N-]=[N+]=N[C@H]1C=C(C(=O)O)O[C@@H]([C@H](O)[C@H](O)CO)[C@@H]1NC(=O)C(F)(F)C(F)(F)C(F)(F)F [Compound 10],4,> 2500,~0.03,0.09,">41,667",0.06 ± 0.02,0.04 ± 0.01,,,,
CC(C)C(=O)N[C@H]1[C@H]([C@H](O)[C@H](O)CO)OC(C(=O)O)=C[C@@H]1N=[N+]=[N-] [Compound 4],,,,,,,,,,20 µM and 21.5 µM,
"O=C(O)C1=C[C@H](NS(=O)(=O)c2ccccc2)[C@@H](NC(=O)C(F)(F)F)[C@H]([C@H](O)[C@H](O)CO)O1 [Compound 19, 2,6-Anhydro-4-(phenylsulfonamido)-3,4,5-trideoxy-5-(2,2,2-trifluoroacetamido)-D-glycero-D-galacto-non-2-enoic Acid]",,,,,,,,,,,10
